Settings in all cases: for Kd: ARS displacement, 0.1M phosphate buffer, pH 7.4, 25° C.
Assay [1] in a line: Alizarin Red S (ARS) displacement assay, binding to glucose. As for the experimental part: (§1) The association constant for the binding event between Alizarin Red S (ARS) and the compounds of each of examples 1-24 was determined using standard methods in the art. Triplicate titrations of 10^-5 M ARS in 0.1M phosphate buffer, pH 7.4, were performed in a 96-well plate against serial dilutions of example compounds, ranging in concentration from 0-0.1M at 25° C. The example compound-ARS solution was incubated for 5-45 minutes at 25° C., and absorbance intensity was measured using excitation wavelength 468 nm and emission wavelength 585 nm. Changes in intensity were plotted against the concentration of the example compound, and the intensity data was fitted to yield an association constant for ARS binding.
(§2) The association constant for the binding between a target sugar compound (e.g., glucose) and a boronate compound was determined via the displacement of ARS bound to the example compounds. Triplicate wells of 10^-5 M ARS and 0.1M example compounds in 0.1M phosphate buffer, pH 7.4, were titrated in a 96-well plate against serial dilutions of the target sugar compound, ranging in concentration from 0-2.0 M at 25° C. The boronate-ARS-carbohydrate solution was incubated for 30-60 minutes at 25° C. and the intensity of each well was measured in a plate reader at excitation wavelength 468 nm and emission wavelength 585 nm. Changes in intensity were plotted against concentration of the target sugar compound, and the data was fitted to a one-site competition equation:
(§3) [formula] to yield an association constant for the boronate compound-target sugar compound binding event.

Assay [2] in a line: Alizarin Red S (ARS) displacement assay, binding to fructose. As for the experimental part: as §1, §2, §3
Assay [3] is described as follows: Alizarin Red S (ARS) displacement assay, binding to lactate. How it is done: as §1, §2, §3
[4] abbreviates: Example 7 (heterobifunctional, boroxole) compared to Example 5.

From US12709622B2, “Conjugates for selective responsiveness to vicinal diols” (PROTOMER TECHNOLOGIES, INC., priority 2020, dated 2026) come the findings set out here.

The term Kd denotes a measure of binding affinity in units of concentration.

In the case of `CS(=O)(=O)c1ccc(B(O)O)cc1C(=O)N[C@@H]1C[C@H](C(N)=O)N(C(=O)c2cc(B(O)O)ccc2S(C)(=O)=O)C1` [Example 1, (3-((2R,4R)-4-(5-borono-2-(methylsulfonyl)benzamido)-2-carbamoylpyrrolidine-1-carbonyl)-4-(methylsulfonyl)phenyl)boronic acid], the results for the Kd in assay [1], in assay [2] and in assay [3] were 25.2 mM, 1.7 mM and 38.3 mM, respectively.
Turning to `O=C(O)CNC(=O)[C@@H]1C[C@H](NC(=O)c2ccc3c(c2)B(O)OC3)CN1C(=O)c1ccc2c(c1)B(O)OC2` [Example 2, ((2S,4S)-1-(1-hydroxy-1,3-dihydrobenzo[c][1,2]oxaborole-6-carbonyl)-4-(1-hydroxy-1,3-dihydrobenzo[c][1,2]oxaborole-6-carboxamido)pyrrolidine-2-carbonyl)glycine], the Kd amounted to 3.7 mM in assay [1], 2 mM in assay [2] and 58 mM in assay [3].
Taken in the same sequence, the figures for `O=C(O)CNC(=O)[C@@H]1C[C@H](NC(=O)c2ccc3c(c2)B(O)OC3)CN1C(=O)c1cc(B(O)O)ccc1[N+](=O)[O-]` [Example 3, ((2S,4S)-1-(5-borono-2-nitrobenzoyl)-4-(1-hydroxy-1,3-dihydrobenzo[c][1,2]oxaborole-6-carboxamido)pyrrolidine-2-carbonyl)glycine] were 14 mM, 1.9 mM and 48 mM.
On to `NC(=O)[C@H](CNC(=O)c1ccc2c(c1)B(O)OC2)NC(=O)c1cc(B(O)O)cc([N+](=O)[O-])c1` [Example 4, (S)-(3-((1-amino-3-(1-hydroxy-1,3-dihydrobenzo[c][1,2]oxaborole-6-carboxamido)-1-oxopropan-2-yl)carbamoyl)-5-nitrophenyl)boronic acid], for which the Kd is 13 mM in assay [1] and 5.6 mM in assay [2].
In the same order, the values of `NC(=O)[C@H](CNC(=O)c1cc(B(O)O)ccc1[N+](=O)[O-])NC(=O)c1cc(B(O)O)ccc1[N+](=O)[O-]` [Example 5, (S)-(3-((1-amino-3-(5-borono-2-nitrobenzamido)-1-oxopropan-2-yl)carbamoyl)-4-nitrophenyl)boronic acid] are 29.4 mM and 11 mM.
As for `NC(=O)[C@H](CNC(=O)c1cc2c(c(C(F)(F)F)c1)COB2O)NC(=O)c1cc(B(O)O)cc([N+](=O)[O-])c1` [Example 6, (S)-(3-((1-amino-3-(1-hydroxy-4-(trifluoromethyl)-1,3-dihydrobenzo[c][1,2]oxaborole-6-carboxamido)-1-oxopropan-2-yl)carbamoyl)-5-nitrophenyl)boronic acid], the Kd in assay [1] was found to be 3.4 mM; in assay [2] it was 4.6 mM; in assay [3] it was 74.1 mM.
With `NC(=O)[C@H](CNC(=O)c1ccc2c(c1)B(O)OC2)NC(=O)c1cc(B(O)O)ccc1[N+](=O)[O-]` [Example 7, (S)-(3-((1-amino-3-(J-hydroxy-1,3-dihydrobenzo[c][1,2]oxaborole-6-carboxamido)-1-oxopropan-2-yl)carbamoyl)-4-nitrophenyl)boronic acid], the Kd in assay [1] was 4.4 mM; in assay [2] it was 1.2 mM; in assay [3], 39.5 mM. Further, the “increase in affinity to glucose” value in assay [1] (setting [4]) is on record as around 7 fold. Further, the “increase in affinity to fructose” value in assay [2] (setting [4]) was around 7 fold. The “increase in affinity to lactate” value in assay [3] (setting [4]) is around 7 fold.
`NC(=O)[C@H](CNC(=O)c1sccc1B(O)O)NC(=O)c1sccc1B(O)O` [Example 8, (S)-(2-((1-amino-3-(3-boronothiophene-2-carboxamido)-1-oxopropan-2-yl)carbamoyl)thiophen-3-yl)boronic acid]: the figures for the Kd in assay [1] and in assay [2] were 32 mM and 2.2 mM, respectively.
Taken in the same sequence, the figures for `O=C(O)CN(CCCNC(=O)c1cc(B(O)O)cc([N+](=O)[O-])c1)C(=O)c1cc(B(O)O)cc([N+](=O)[O-])c1` [Example 9, N-(3-(3-borono-5-nitrobenzamido)propyl)-N-(3-borono-5-nitrobenzoyl)glycine] were 6.5 mM and 10.6 mM.
Take `O=C(O)CN(CCCCNC(=O)c1cc(B(O)O)cc([N+](=O)[O-])c1)C(=O)c1cc(B(O)O)cc([N+](=O)[O-])c1` [Example 10, N-(4-(3-borono-5-nitrobenzamido)butyl)-N-(3-borono-5-nitrobenzoyl)glycine]: the Kd in assay [1] came to 99.8 mM; in assay [2], 11.5 mM.
`O=C(O)CN(CCCCCNC(=O)c1cc(B(O)O)cc([N+](=O)[O-])c1)C(=O)c1cc(B(O)O)cc([N+](=O)[O-])c1` [Example 11, N-(5-(3-borono-5-nitrobenzamido)pentyl)-N-(3-borono-5-nitrobenzoyl)glycine] gave a Kd in assay [2] of 24.7 mM.
Regarding `O=C(O)CN(Cc1ccc(CNC(=O)c2cc(B(O)O)cc([N+](=O)[O-])c2)cc1)C(=O)c1cc(B(O)O)cc([N+](=O)[O-])c1` [Example 12, N-(4-((3-borono-5-nitrobenzamido)methyl)benzyl)-N-(3-borono-5-nitrobenzoyl)glycine], binding in assay [2] was put at a Kd of 12.1 mM.
Same read-out and setting: with `O=C(O)CN(Cc1cccc(CNC(=O)c2cc(B(O)O)cc([N+](=O)[O-])c2)c1)C(=O)c1cc(B(O)O)cc([N+](=O)[O-])c1` [Example 13, N-(3-((3-borono-5-nitrobenzamido)methyl)benzyl)-N-(3-borono-5-nitrobenzoyl)glycine] the figure was 17.8 mM.
For the compound `NC(=O)CN(C(=O)c1ccc2c(c1)B(O)OC2)[C@@H]1CCCC[C@H]1NC(=O)c1ccc2c(c1)B(O)OC2` [Example 14, N-(2-amino-2-oxoethyl)-1-hydroxy-N-((1R,2R)-2-(1-hydroxy-1,3-dihydrobenzo[c][1,2]oxaborole-6-carboxamido)cyclohexyl)-1,3-dihydrobenzo[c][1,2]oxaborole-6-carboxamide], the figures for the Kd in assay [1], in assay [2] and in assay [3] were 1.64 mM, 5.88 mM and 59.8 mM, respectively.
Consider `O=C(O)CN(CCCNC(=O)c1ccc(F)c(B(O)O)c1)C(=O)c1ccc(F)c(B(O)O)c1` [Example 15, N-(3-(3-borono-4-fluorobenzamido)propyl)-N-(3-borono-4-fluorobenzoyl)glycine], for which the Kd amounted to 59 mM in assay [1], 4.8 mM in assay [2] and 51.6 mM in assay [3].
Taken in the same sequence, the figures for `O=C(O)CN(Cc1cccc(CNC(=O)c2ccc(F)c(B(O)O)c2)c1)C(=O)c1ccc(F)c(B(O)O)c1` [Example 17, N-(3-((3-borono-4-fluorobenzamido)methyl)benzyl)-N-(3-borono-4-fluorobenzoyl)glycine] were 88.6 mM, 6.5 mM and 53.5 mM.
In the same order, the values of `O=C(O)CN(C(=O)c1ccc(F)c(B(O)O)c1)[C@H]1CCCC[C@H]1NC(=O)c1ccc(F)c(B(O)O)c1` [Example 18, N-((1S,2R)-2-(3-borono-4-fluorobenzamido)cyclohexyl)-N-(3-borono-4-fluorobenzoyl)glycine] are 95.4 mM, 6.04 mM and 67.5 mM.
Regarding `O=C(O)CN(CCCNC(=O)c1ccc(B(O)O)c(F)c1)C(=O)c1ccc(B(O)O)c(F)c1` [Example 19, N-(3-(4-borono-3-fluorobenzamido)propyl)-N-(4-borono-3-fluorobenzoyl)glycine], the Kd was determined as 43 mM in assay [1], 2.87 mM in assay [2] and 31 mM in assay [3].
In the same order, the values of `O=C(O)CN(CCCCCNC(=O)c1ccc(B(O)O)c(F)c1)C(=O)c1ccc(B(O)O)c(F)c1` [Example 20, N-(S-(4-borono-3-fluorobenzamido)pentyl)-N-(4-borono-3-fluorobenzoyl)glycine] are 30.4 mM, 5.86 mM and 70.3 mM.
For `O=C(O)CN(Cc1ccc(CNC(=O)c2ccc(B(O)O)c(F)c2)cc1)C(=O)c1ccc(B(O)O)c(F)c1` [Example 21, N-(4-((4-borono-3-fluorobenzamido)methyl)benzyl)-N-(4-borono-3-fluorobenzoyl)glycine], binding in assay [2] was characterised by a dissociation constant (Kd) of 13.5 mM.
For `O=C(O)CN(Cc1cccc(CNC(=O)c2ccc(B(O)O)c(F)c2)c1)C(=O)c1ccc(B(O)O)c(F)c1` [Example 22, N-(3-((4-borono-3-fluorobenzamido)methyl)benzyl)-N-(4-borono-3-fluorobenzoyl)glycine], the Kd in assay [1] came to 16.1 mM; in assay [2], 9.52 mM; in assay [3], 97.3 mM.
For `O=C(O)CN(Cc1cccc(CNC(=O)c2cc(Br)cc(B(O)O)c2)c1)C(=O)c1cc(Br)cc(B(O)O)c1` [Example 24, N-(3-((3-borono-5-bromobenzamido)methyl)benzyl)-N-(3-borono-5-bromobenzoyl)glycine], the figures for the Kd in assay [1] and in assay [2] were 93.7 mM and 9.36 mM, respectively.
